The subject of this assay is MCF7. The assay is described as follows: Induction of DNA damage in RECQL5 knock out human MCF7 cells assessed as double strand breaks by measuring increase in phosphorylation of RPA2 at 20 uM measured after 4 to 24 hrs by Western blot analysis. In kind it is functional, cell-based. Conditions: time 4-24 hrs.

Activity calls are given as the source filed them. The rule behind the calls is not given here.

For `O=C(Nc1cc(C(F)(F)F)cc(C(F)(F)F)c1)N[C@@H](c1ccccc1)c1nnc(SCc2ccccc2)o1`, the result was inactive.

Source of the values: ChEMBL document CHEMBL5038569, “Targeting RECQL5 Functions, by a Small Molecule, Selectively Kills Breast Cancer in Vitro and in Vivo” (J Med Chem, 2021).
